According to patent publication US5700804A, “Pharmaceutical compounds” (Xenova Limited, priority 1992, dated 1997):

Target: PAI-1 (Homo sapiens, UniProt P05121)
Assay: PAI chromogenic substrate assay (first S2251 assay, tPA/plasminogen system)
Assay type: biochemical
Procedure, shortened: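 Compound preincubated with PAI-1, then added to a tPA/plasminogen system; residual tPA activity generates plasmin, which cleaves chromogenic substrate S2251, releasing p-nitroaniline read at 405 nm.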

Chain of PAI-1 (P05121 24-402): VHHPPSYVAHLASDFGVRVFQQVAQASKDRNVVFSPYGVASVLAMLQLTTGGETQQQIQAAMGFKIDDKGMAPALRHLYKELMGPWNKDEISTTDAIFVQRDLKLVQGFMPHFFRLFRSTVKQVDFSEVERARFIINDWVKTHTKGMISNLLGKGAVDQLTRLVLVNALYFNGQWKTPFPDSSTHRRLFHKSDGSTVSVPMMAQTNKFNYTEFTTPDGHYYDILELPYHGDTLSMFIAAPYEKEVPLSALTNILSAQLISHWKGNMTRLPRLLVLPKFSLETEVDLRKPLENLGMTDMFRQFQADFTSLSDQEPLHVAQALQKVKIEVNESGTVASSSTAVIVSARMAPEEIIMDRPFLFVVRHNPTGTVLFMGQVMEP

COc1ccc(/C=c2\[nH]c(=O)/c(=C/c3ccccc3C(F)(F)F)[nH]c2=O)cc1 [Compound 70, (3Z,6Z)-3-(4-Methoxybenzylidene)-6-(2-trifluoromethylbenzylidene)-2,5-piperazinedione]
Inhibition of PAI-1 in the first S2251 chromogenic substrate assay (Concentration 12.5 μm): 4% | Inhibition of PAI-1 in the first S2251 chromogenic substrate assay (Concentration 25 μm): 21% | Inhibition of PAI-1 in the first S2251 chromogenic substrate assay (Concentration 50 μm): 78% | Inhibition of PAI-1 in the first S2251 chromogenic substrate assay (Concentration 100 μm): 94%

COc1ccc(/C=c2\[nH]c(=O)/c(=C/c3ccc(N(C)C(C)=O)cc3)[nH]c2=O)cc1 [Compound 41, (3Z,6Z)-3-(4-Methoxybenzylidene)-6-(4-N-methylacetamidobenzylidene)-2,5-piperazinedione]
Inhibition of PAI-1 in the first S2251 chromogenic substrate assay (Concentration 6.25 μm): 3% | Inhibition of PAI-1 in the first S2251 chromogenic substrate assay (Concentration 12.5 μm): 8% | Inhibition of PAI-1 in the first S2251 chromogenic substrate assay (Concentration 25 μm): 32% | Inhibition of PAI-1 in the first S2251 chromogenic substrate assay (Concentration 50 μm): 45% | Inhibition of PAI-1 in the first S2251 chromogenic substrate assay (Concentration 100 μm): 51%

COC(=O)CCCC(=O)NCc1ccc(/C=c2\[nH]c(=O)/c(=C/c3ccccc3)[nH]c2=O)cc1 [Compound 94, 4-(4-[(3Z,6Z)-6-Benzylidene-2,5-dioxopiperazin-3-ylidene]methylbenzylcarbamoyl) butanoic acid, methyl ester]
Inhibition of PAI-1 in the first S2251 chromogenic substrate assay (Concentration 6.25 μm): 43% | Inhibition of PAI-1 in the first S2251 chromogenic substrate assay (Concentration 12.5 μm): 76% | Inhibition of PAI-1 in the first S2251 chromogenic substrate assay (Concentration 25 μm): 83% | Inhibition of PAI-1 in the first S2251 chromogenic substrate assay (Concentration 50 μm): 62% | Inhibition of PAI-1 in the first S2251 chromogenic substrate assay (Concentration 100 μm): 31%

O=c1[nH]/c(=C\c2ccccc2Br)c(=O)[nH]/c1=C\c1ccccc1 [Compound 55, (3Z,6Z)-6-Benzylidene-3-(2-bromobenzylidene)-2,5-piperazinedione]
Inhibition of PAI-1 in the first S2251 chromogenic substrate assay (Concentration 12.5 μm): 1% | Inhibition of PAI-1 in the first S2251 chromogenic substrate assay (Concentration 25 μm): 11% | Inhibition of PAI-1 in the first S2251 chromogenic substrate assay (Concentration 50 μm): 43% | Inhibition of PAI-1 in the first S2251 chromogenic substrate assay (Concentration 100 μm): 65%

COc1ccc(/C=c2\[nH]c(=O)/c(=C/c3ccc(O)cc3Cl)[nH]c2=O)cc1 [Compound 84, (3Z,6Z)-3-(2-Chloro-4-hydroxybenzylidene)-6-(4-methoxybenzylidene)-2,5-piperazinedione]
Inhibition of PAI-1 in the first S2251 chromogenic substrate assay (Concentration 6.25 μm): 1% | Inhibition of PAI-1 in the first S2251 chromogenic substrate assay (Concentration 12.5 μm): 2% | Inhibition of PAI-1 in the first S2251 chromogenic substrate assay (Concentration 25 μm): 10% | Inhibition of PAI-1 in the first S2251 chromogenic substrate assay (Concentration 50 μm): 38% | Inhibition of PAI-1 in the first S2251 chromogenic substrate assay (Concentration 100 μm): 52%

O=C(O)CCCCOc1ccc(/C=c2\[nH]c(=O)/c(=C/c3ccccc3)[nH]c2=O)cc1 [Compound 97, 5-[4-((3Z,6Z)-6-Benzylidene-2,5-dioxopiperazin-3-ylidene)methylphenoxy]pentanoic acid]
Inhibition of PAI-1 in the first S2251 chromogenic substrate assay (Concentration 6.25 μm): 0% | Inhibition of PAI-1 in the first S2251 chromogenic substrate assay (Concentration 12.5 μm): 0% | Inhibition of PAI-1 in the first S2251 chromogenic substrate assay (Concentration 25 μm): 73% | Inhibition of PAI-1 in the first S2251 chromogenic substrate assay (Concentration 50 μm): 24% | Inhibition of PAI-1 in the first S2251 chromogenic substrate assay (Concentration 100 μm): 0%

COc1ccc(/C=c2\[nH]c(=O)/c(=C/c3ccc(OC(C)C)cc3)[nH]c2=O)cc1 [Compound 49, (3Z,6Z)-3-(4-isopropoxybenzylidene)-6-(4-methoxybenzylidene)-2,5-piperazinedione]
Inhibition of PAI-1 in the first S2251 chromogenic substrate assay (Concentration 12.5 μm): 1% | Inhibition of PAI-1 in the first S2251 chromogenic substrate assay (Concentration 25 μm): 8% | Inhibition of PAI-1 in the first S2251 chromogenic substrate assay (Concentration 50 μm): 47% | Inhibition of PAI-1 in the first S2251 chromogenic substrate assay (Concentration 100 μm): 60%

COc1ccc(/C=c2\[nH]c(=O)/c(=C/c3ccccc3)[nH]c2=O)cc1 [Compound 3, (3Z,6Z,)-6-benylidene-3-(4-methoxybenzylidene)-2,5-piperazinedione]
Inhibition of PAI-1 in the first S2251 chromogenic substrate assay (Concentration 6 μm): 14% | Inhibition of PAI-1 in the first S2251 chromogenic substrate assay (Concentration 12 μm): 40% | Inhibition of PAI-1 in the first S2251 chromogenic substrate assay (Concentration 25 μm): 53% | Inhibition of PAI-1 in the first S2251 chromogenic substrate assay (Concentration 50 μm): 74% | Inhibition of PAI-1 in the first S2251 chromogenic substrate assay (Concentration 100 μm): 86%

COc1ccc(/C=c2\[nH]c(=O)/c(=C/c3ccc4ccccc4c3)[nH]c2=O)cc1 [Compound 27, (3Z,6Z)-3-(4-Methoxybenzylidene)-6-(2-naphthylmethylene)-2,5-piperazinedione]
Inhibition of PAI-1 in the first S2251 chromogenic substrate assay (Concentration 12.5 μm): 9% | Inhibition of PAI-1 in the first S2251 chromogenic substrate assay (Concentration 25 μm): 8% | Inhibition of PAI-1 in the first S2251 chromogenic substrate assay (Concentration 50 μm): 35% | Inhibition of PAI-1 in the first S2251 chromogenic substrate assay (Concentration 100 μm): 70%

COC(=O)CCCCOc1ccc(/C=c2\[nH]c(=O)/c(=C/c3ccccc3)[nH]c2=O)cc1 [Compound 96, 5-[4-((3Z,6Z)-6-Benzylidene-2,5-dioxopiperazin-3-ylidene)methylphenoxy]pentanoic acid, methyl ester]
Inhibition of PAI-1 in the first S2251 chromogenic substrate assay (Concentration 6.25 μm): 5% | Inhibition of PAI-1 in the first S2251 chromogenic substrate assay (Concentration 12.5 μm): 29% | Inhibition of PAI-1 in the first S2251 chromogenic substrate assay (Concentration 25 μm): 47% | Inhibition of PAI-1 in the first S2251 chromogenic substrate assay (Concentration 50 μm): 75% | Inhibition of PAI-1 in the first S2251 chromogenic substrate assay (Concentration 100 μm): 77%

CN(C)c1ccc(/C=c2\[nH]c(=O)/c(=C/c3ccccc3)[nH]c2=O)c2ccccc12 [Compound 89]
Inhibition of PAI-1 in the first S2251 chromogenic substrate assay (Concentration 6.25 μm): 7% | Inhibition of PAI-1 in the first S2251 chromogenic substrate assay (Concentration 12.5 μm): 40% | Inhibition of PAI-1 in the first S2251 chromogenic substrate assay (Concentration 25 μm): 66% | Inhibition of PAI-1 in the first S2251 chromogenic substrate assay (Concentration 50 μm): 55% | Inhibition of PAI-1 in the first S2251 chromogenic substrate assay (Concentration 100 μm): 63%

CC(=O)Nc1ccc(/C=c2\[nH]c(=O)/c(=C/c3ccc(N(C)C)cc3)[nH]c2=O)cc1 [Compound 86, (3Z,6Z)-3-(4-Acetamidobenzylidene)-6-(4-dimethylaminobenzylidene)-2,5-piperazinedione]
Inhibition of PAI-1 in the first S2251 chromogenic substrate assay (Concentration 6.25 μm): 31% | Inhibition of PAI-1 in the first S2251 chromogenic substrate assay (Concentration 12.5 μm): 41% | Inhibition of PAI-1 in the first S2251 chromogenic substrate assay (Concentration 25 μm): 48% | Inhibition of PAI-1 in the first S2251 chromogenic substrate assay (Concentration 50 μm): 37% | Inhibition of PAI-1 in the first S2251 chromogenic substrate assay (Concentration 100 μm): 23%
